Where “and” joins values, the source holds several entries; their conditions need not be identical. Equal entries are not always repeated.
Legend:
GRK2 [1] = target: T1, GRK2 (Homo sapiens, UniProt P25098); experiment: GRK2 Transcreener Assay; format: biochemical; details: Biological Example 2 GRK2 Transcreener IC50 (μM), 10 nM GRK2; 10 μM ATP; 150 μM peptide substrate; multiple measurements listed individually
T1 sequence (P25098 1-689): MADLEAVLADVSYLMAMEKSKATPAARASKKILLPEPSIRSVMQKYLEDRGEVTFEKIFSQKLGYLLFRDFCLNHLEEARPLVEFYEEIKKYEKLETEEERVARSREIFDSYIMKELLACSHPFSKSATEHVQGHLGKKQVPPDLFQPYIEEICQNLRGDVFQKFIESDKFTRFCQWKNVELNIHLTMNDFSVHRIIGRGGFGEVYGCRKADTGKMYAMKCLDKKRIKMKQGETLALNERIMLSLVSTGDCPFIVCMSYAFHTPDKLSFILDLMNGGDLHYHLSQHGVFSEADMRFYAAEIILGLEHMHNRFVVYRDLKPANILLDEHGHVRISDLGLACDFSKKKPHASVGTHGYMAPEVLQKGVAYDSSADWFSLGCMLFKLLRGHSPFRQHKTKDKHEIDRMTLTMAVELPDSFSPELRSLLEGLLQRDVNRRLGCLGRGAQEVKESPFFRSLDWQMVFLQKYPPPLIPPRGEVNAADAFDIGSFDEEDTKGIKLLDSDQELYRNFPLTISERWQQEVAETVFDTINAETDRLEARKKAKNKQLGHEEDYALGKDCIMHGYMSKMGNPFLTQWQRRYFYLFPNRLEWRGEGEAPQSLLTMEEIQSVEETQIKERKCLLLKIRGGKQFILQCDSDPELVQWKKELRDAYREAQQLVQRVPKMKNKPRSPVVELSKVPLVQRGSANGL
Procedure: Positive and negative control wells received an equal volume of DMSO. The final DMSO concentration in the assay is 1%.
The plate was placed in centrifuge equipped with a spin-bucket rotor and spun for 1 min at 1000 rpm.
GRK2 enzymatic reactions were initiated with the addition of 2 μL/well of 50 nM GRK2 in assay buffer. Plates were centrifuged for 1 min at 1000 rpm. For negative control wells, the order of reagent addition was reversed: 10 μL/well ADP detection mix (see below) was added first, followed by the addition of 2 μL/well of the GRK2 solution. Reaction mixtures were incubated at ambient temperature for 2 hours. Final concentrations of reagents in the assays were as follows:
Following incubation, the reactions were quenched with 10 μL/well of the Transcreener ADP detection mix. […] The plates were then centrifuged for 1 min at 1000 rpm.
Fluorescence polarization values of the reaction mixtures were read on a Safire plate reader after a 60 min incubation at ambient temperature. Excitation wavelength=590 nm; emission wavelength=650 nm.
The fluorescence polarization data were converted to % activity as follows:
% activity=(sample−NC)/(PC−NC)*100
where NC is the mean of negative control (ADP detection mix added prior to GRK2 addition), and PC is the mean of positive control (GRK2 reaction without inhibitor). IC50 values are determined from a 4-parameter fit, using the following equation:
Y=Bottom+(Top−Bottom)/(1+10^((Log IC50−X)*Hill slope))
where X=log10 of the compound concentration.

GRK2 [2] = target: T1, GRK2; experiment: hGRK2 LANCE Ultra In Vitro Assay; format: biochemical; details: Biological Example 1 GRK2 Lancer IC50 (μM), 10 nM GRK2; 30 or 600 μM ATP (not stated which); multiple measurements listed individually
How it was run: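 TR-FRET kinase assay with 10 nM GRK2 preincubated 30 min with compound, then 200 nM ULight-peptide and 30 or 600 μM ATP in HEPES pH 7.5, 10 mM MgCl2, 1% DMSO; 120 or 60 min at ambient temperature respectively.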

Row | IC50 (GRK2 [1]) | SMILES | IC50 (GRK2 [2]) [µM]
1 | > 50 µM | CNC(=O)c1ccc(-c2ccc3c(c2)C(=O)N(Cc2cccc(OC)c2)C3)cn1 [Compound 23, 5-(2-(3-methoxybenzyl)-3-oxoisoindolin-5-yl)-N-methylpicolinamide] | –
2 | 0.719 µM | CS(=O)(=O)Nc1cccc(CN2Cc3ccc(-c4ccnc5[nH]ccc45)cc3C2=O)c1 [Compound 10] | –
3 | 0.01 µM | COc1cccc(CN2C(=O)c3cc(-c4cn[nH]c4)ccc3C23CC=CC3)c1 [Compound 6, 2′-(3-methoxybenzyl)-5′-(1H-pyrazol-4-yl)spiro[cyclopentane-1,1′-isoindolin]-3-en-3′-one] | –
4 | 0.383 µM | CCOc1cccc(CN2Cc3ccc(-c4ccnc(N)n4)cc3C2=O)c1 [Compound 11] | –
5 | 0.009 µM | COc1cccc(CN2C(=O)c3cc(-c4cn[nH]c4)ccc3C23CC(O)C(O)C3)c1 (stereo not shown) [Compound 8, 3,4-dihydroxy-2′-(3-methoxybenzyl)-5′-(1H-pyrazol-4-yl)spiro[cyclopentane-1,1′-isoindolin]-3′-one] | –
6 | 1.2 µM | NCc1cccc(CN2Cc3ccc(-c4cn[nH]c4)cc3C2=O)c1 [Compound 22, 2-(3-(Aminomethyl)benzyl)-6-(1H-pyrazol-4-yl)isoindolin-1-one] | –
7 | < 0.005 µM | COc1cccc(CN2C(=O)c3cc(-c4cn[nH]c4)ccc3C23CCNCC3)c1 [Compound 14, 2-(3-methoxybenzyl)-5-(1H-pyrazol-4-yl)spiro[isoindoline-1,4′-piperidin]-3-one] | –
8 | 0.009 µM | CCOc1cccc(CN2Cc3ccc(-c4cn[nH]c4)cc3C2=O)c1 [Compound 2, 2-(3-ethoxybenzyl)-6-(1H-pyrazol-4-yl)isoindolin-1-one] | –
9 | 0.005 µM | COc1cccc(CN2C(=O)c3cc(-c4cn[nH]c4)ccc3C2(C)C)c1 [Compound 7, 2-(3-methoxybenzyl)-3,3-dimethyl-6-(1H-pyrazol-4-yl)isoindolin-1-one] | –
10 | 0.048 µM | COc1cccc(CN2C(=O)c3cc(-c4ccnc(N)n4)ccc3C2(C)C)c1 [Compound 17, 6-(2-aminopyrimidin-4-yl)-2-(3-methoxybenzyl)-3,3-dimethylisoindolin-1-one] | –
11 | 0.02 µM | COc1cccc(CN2Cc3ccc(-c4c[nH]nn4)cc3C2=O)c1 [Compound 20, 2-(3-methoxybenzyl)-6-(1H-1,2,3-triazol-4-yl)isoindolin-1-one] | –
12 | 0.017 µM | O=C1c2cc(-c3cn[nH]c3)ccc2CN1Cc1cccc(F)c1 [Compound 16, 2-(3-Fluorobenzyl)-6-(1H-pyrazol-4-yl)isoindolin-1-one] | –
13 | 0.054 µM | COc1cccc(CN2C(=O)c3cc(-c4c[nH]nn4)ccc3C2(C)C)c1 [Compound 21, 2-(3-methoxybenzyl)-3,3-dimethyl-6-(1H-1,2,3-triazol-4-yl)isoindolin-1-one] | –
14 | < 0.005 µM and 0.005 µM | COc1cccc(CN2Cc3ccc(-c4cn[nH]c4)cc3C2=O)c1 [Compound 1, 2-(3-methoxybenzyl)-6-(1H-pyrazol-4-yl)isoindolin-1-one] | –
15 | 0.305 µM | CC(C)(C)OC(=O)c1cccc(CN2Cc3ccc(-c4cn[nH]c4)cc3C2=O)c1 [Compound 164] | –
16 | 0.546 µM | Cc1cccc([C@@H](C)N2Cc3ccc(-c4cn[nH]c4)cc3C2=O)n1 [Compound 25] | –
17 | 0.291 µM | CS(=O)(=O)Nc1cccc(CN2Cc3ccc(-c4cn[nH]c4)cc3C2=O)c1 [Compound 9] | –
18 | – | COc1cccc([C@@H](C)N2Cc3c(cc(-c4cn[nH]c4)cc3-c3cccnc3)C2=O)c1 [Compound 124, (R)-2-(1-(3-methoxyphenyl)ethyl)-6-(1H-pyrazol-4-yl)-4-(pyridin-3-yl)isoindolin-1-one] | 0.005
19 | – | CCOc1cccc(C(CO)N2Cc3ccc(-c4cn[nH]c4)cc3C2=O)c1 (stereo not shown) [Compound 53, 2-(2-Hydroxy-1-(3-ethoxyphenyl)ethyl)-6-(1H-pyrazol-4-yl)isoindolin-1-one] | 0.008
20 | – | COc1cccc(C(CCC(=O)O)N2Cc3ccc(-c4cn[nH]c4)cc3C2=O)c1 (stereo not shown) [Compound 117, 4-(3-methoxyphenyl)-4-(1-oxo-6-(1H-pyrazol-4-yl)isoindolin-2-yl)butanoic acid] | 0.404

Row | IC50 (GRK2 [1]) | SMILES | IC50 (GRK2 [2]) [µM]
21 | – | O=C(N[C@H]1C[C@H]2CC[C@@H]1C2)c1cccc(CN2Cc3ccc(-c4cn[nH]c4)cc3C2=O)c1 [Compound 128] | < 0.005
22 | – | CC(C)NC(=O)c1cccc([C@@H](C)N2Cc3ccc(-c4cn[nH]c4)cc3C2=O)c1 [Compound 31] | 5.38
23 | – | O=C1c2cc(-c3cn[nH]c3)ccc2CN1Cc1cccs1 [Compound 28, 6-(1H-Pyrazol-4-yl)-2-(thiophen-2-ylmethyl)isoindolin-1-one] | 0.091
24 | – | COC(=O)COc1cccc(CN2Cc3ccc(-c4ccnc5[nH]ccc45)cc3C2=O)c1 [Compound 54] | 0.292
25 | – | COc1cccc(CN2C(=O)c3cc(-c4cn[nH]c4)ccc3C23CCCC3)c1 [Compound 42, 2′-(3-methoxybenzyl)-5′-(1H-pyrazol-4-yl)spiro[cyclopentane-1,1′-isoindolin]-3′-one] | 0.006
26 | – | COc1cccc([C@@H](C)N2C(=O)c3cc(-c4cn[nH]c4)ccc3[C@@H]2CC(=O)O)c1 (single isomer, unassigned) [Compound 97] | 0.012
27 | – | COc1cccc([C@@H](C)N2Cc3ccc(-c4cn[nH]c4)c(F)c3C2=O)c1 [Compound 30, 7-fluoro-2-[(1R)-1-(3-methoxyphenyl)ethyl]-6-(1H-pyrazol-4-yl)isoindolin-1-one] | < 0.005
28 | – | COc1cccc(CN2C(=O)c3cc(-c4cn[nH]c4)ccc3C23CCC(O)C3O)c1 (stereo not shown) [Compound 102, 2,3-dihydroxy-2′-(3-methoxybenzyl)-5′-(1H-pyrazol-4-yl)spiro[cyclopentane-1,1′-isoindolin]-3′-one] | 0.006
29 | – | O=C(Oc1cccc(CN2Cc3ccc(-c4cn[nH]c4)cc3C2=O)c1)C1CC1 [Compound 137] | 0.034
30 | – | C[C@H](c1cccc(C(=O)Nc2ccc(F)c(F)c2)c1)N1Cc2ccc(-c3cn[nH]c3)cc2C1=O [Compound 32] | 0.261
31 | – | CNC(=O)c1cc(-c2ccc3c(c2)C(=O)N(Cc2cccc(OC)c2)C3)ccn1 [Compound 37, 4-(2-(3-methoxybenzyl)-3-oxoisoindolin-5-yl)-N-methylpicolinamide] | > 20
32 | – | COc1cccc(CN2C(=O)c3cc(-c4cn[nH]c4)ccc3C23CCCCC3)c1 [Compound 81, 2′-(3-methoxybenzyl)-5′-(1H-pyrazol-4-yl)spiro[cyclohexane-1,1′-isoindolin]-3′-one] | 0.011
33 | – | COC(=O)[C@H](c1cccc(OC)c1)N1Cc2ccc(-c3cn[nH]c3)cc2C1=O [Compound 72] | 0.13
34 | – | O=C(NC1CC2CCC1C2)c1cccc(CN2Cc3ccc(-c4cn[nH]c4)cc3C2=O)c1 (stereo not shown) [Compound 174] | 0.003
35 | – | COc1cccc(C(CC(=O)O)N2Cc3ccc(-c4cn[nH]c4)cc3C2=O)c1 (stereo not shown) [Compound 100, 3-(3-methoxyphenyl)-3-(1-oxo-6-(1H-pyrazol-4-yl)isoindolin-2-yl)propanoic acid] | 6.24
36 | – | CCOc1cccc([C@@H](C)N2Cc3ccc(-c4cn[nH]c4)cc3C2=O)c1 [Compound 29, 2-[(1R)-1-(3-ethoxyphenyl)ethyl]-6-(1H-pyrazol-4-yl)isoindolin-1-one] | 0.006
37 | – | COc1cccc(CN2C(=O)c3cc(-c4cn[nH]c4)ccc3C23CCc2c(O)cccc23)c1 (stereo not shown) [Compound 89, 4-hydroxy-2′-(3-methoxybenzyl)-5′-(1H-pyrazol-4-yl)-2,3-dihydrospiro[indene-1,1′-isoindolin]-3′-one] | 0.144
38 | – | CC(c1cccc(Oc2ccccc2)c1)N1Cc2ccc(-c3cn[nH]c3)cc2C1=O (stereo not shown) [Compound 104] | > 11
39 | – | COc1cccc(CN2Cc3cc(F)c(-c4ccnc(N)n4)cc3C2=O)c1 [Compound 36] | 0.241
40 | – | COc1cccc([C@@H](C)N2Cc3c(cc(-c4cn[nH]c4)cc3N3CCNCC3)C2=O)c1 [Compound 155, (R)-2-(1-(3-methoxyphenyl)ethyl)-4-(piperazin-1-yl)-6-(1H-pyrazol-4-yl)isoindolin-1-one] | 0.007

Reference: patent US20220009906A1, “ISOINDOLIN-1-ONE DERIVATIVES USEFUL AS GRK2 INHIBITORS” (priority 2020, published 2022)
